A word on the IC50: it is the concentration that gives 50% inhibition. One may read the Kd as the free concentration of one partner at which half of the binding sites on the other are occupied at equilibrium, for simple one-to-one binding. Low readings indicate tighter binding, high ones weaker binding.

Values joined by “and” are separate entries in the source; they are usually repeats but may differ in a detail not shown here. Equal entries are not always repeated.

The target in one test is T1, CYP2C19 (Homo sapiens, UniProt P33261).
T1 construct: pooled human liver microsomes; tissue BioIVT; host or cells: pooled human liver microsomes
T1 sequence (P33261 whole entry): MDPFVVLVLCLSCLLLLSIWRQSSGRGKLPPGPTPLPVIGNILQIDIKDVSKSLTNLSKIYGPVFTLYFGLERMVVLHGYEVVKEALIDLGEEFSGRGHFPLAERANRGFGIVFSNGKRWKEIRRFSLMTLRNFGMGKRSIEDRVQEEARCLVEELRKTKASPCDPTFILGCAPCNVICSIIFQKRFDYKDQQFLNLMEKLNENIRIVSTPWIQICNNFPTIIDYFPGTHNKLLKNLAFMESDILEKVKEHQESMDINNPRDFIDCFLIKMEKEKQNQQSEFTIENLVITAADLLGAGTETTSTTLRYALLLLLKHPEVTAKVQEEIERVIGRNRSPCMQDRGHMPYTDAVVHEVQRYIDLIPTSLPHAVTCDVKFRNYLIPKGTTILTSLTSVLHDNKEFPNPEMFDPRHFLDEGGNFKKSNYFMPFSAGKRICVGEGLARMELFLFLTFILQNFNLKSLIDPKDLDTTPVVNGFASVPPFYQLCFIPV
Briefly: CYP450 inhibition in HLM, mephenytoin probe. The class given is in vitro ADME. The procedure: The CYP450 inhibition was determined by measuring the reaction products of known CYP450 substrates (probes). […] These probe solutions were dispensed (195 µL) into clear 96-well plates with low evaporation lids (Corning, Turin, Italy) and the plates were prewarmed to 37 °C in a thermomixer (Hamilton, Agrate Brianza, Italy). Next, 5 µL of the test compound or appropriate positive control (Table S4) were added to the wells and the plates were incubated for a further 5 min. Following this, the reactions were started by adding NADPH regenerating solution (50 µL, see previous Section 4.7) to each well. CYP450 mixtures containing phenacetin, rosiglitazone, mephenytoin, atorvastatin, and nifedipine probes were incubated for 10 min at 37 °C, whereas those with midazolam and diclofenac were incubated for 5 min at 37 °C. […]
Probe products were analyzed on an API4000 Qtrap mass spectrometer (Applied Biosystems/MDS SCIEX, Monza, Italy) coupled with an Acquity UPLC system (Waters, Milan, Italy) and a CTC-PAL auto-injector (CTC Analytics AG, Zwingen, Switzerland). […] The analytes were quantified in multiple reaction-monitoring mode. Data were processed, and the percentage control activity was calculated based on a comparison between the ratio of the sample peak area and the peak area.

The next test has as its target MSPa (Pseudomonas aeruginosa, UniProt Q9I636). Briefly: Isothermal titration calorimetry, MSPa. (Isothermal titration calorimetry measures the heat released or taken up as one component is titrated into another.)
Setting [1] is: ITC, 25 °C, reverse titration, MSPa.

Sequence of MSPa (Q9I636 whole entry): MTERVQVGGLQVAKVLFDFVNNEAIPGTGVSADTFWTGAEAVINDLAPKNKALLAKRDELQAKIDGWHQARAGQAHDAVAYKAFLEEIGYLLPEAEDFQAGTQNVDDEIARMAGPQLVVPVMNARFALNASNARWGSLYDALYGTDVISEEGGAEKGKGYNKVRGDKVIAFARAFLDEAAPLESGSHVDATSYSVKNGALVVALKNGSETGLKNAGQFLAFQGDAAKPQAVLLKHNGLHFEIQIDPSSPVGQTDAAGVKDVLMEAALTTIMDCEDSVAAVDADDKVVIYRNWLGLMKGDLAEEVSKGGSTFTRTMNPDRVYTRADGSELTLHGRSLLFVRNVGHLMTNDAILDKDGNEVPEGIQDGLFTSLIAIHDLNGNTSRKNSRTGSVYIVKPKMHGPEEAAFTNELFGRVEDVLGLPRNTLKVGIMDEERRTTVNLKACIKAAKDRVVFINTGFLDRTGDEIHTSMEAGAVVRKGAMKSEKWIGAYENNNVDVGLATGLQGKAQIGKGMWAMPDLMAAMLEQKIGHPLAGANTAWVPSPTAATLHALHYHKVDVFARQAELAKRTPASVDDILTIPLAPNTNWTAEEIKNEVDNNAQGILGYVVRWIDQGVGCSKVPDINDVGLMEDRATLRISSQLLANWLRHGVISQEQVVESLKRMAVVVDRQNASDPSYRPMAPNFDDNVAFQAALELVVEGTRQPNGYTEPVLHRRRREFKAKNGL
Method for MSPa: Protein samples were dialyzed (2 × 1 L) in a D-tube dialyzer (Merck, Watford, UK) for 3 h in 25 mM Tris-HCl, 100 mM NaCl, and 0.1 mM TCEP (pH 7.5). […] The syringe and the cell both contained a final concentration of 0.1% DMSO. The injection parameters for MSPa were: Reference power 15 µcal/sec, initial injection of 3 µL (3.6 sec per injection) with subsequent injections of 10 µL (12 sec per injection). Injections were spaced by 150 sec with a filter period of 2 sec. The injection parameters for ICLPa were: Reference power 15 µcal/sec, initial injection of 3 µL (3.6 sec per injection) with subsequent injections of 8 µL (10 sec per injection). Injections were spaced by 170 sec with a filter period of 2 sec. Data were analyzed in NITPIC (NITPIC, Bethesda, MD, USA) [31] for baseline calculations and then fit for thermodynamic parameters using the OneSite model in Origin 7.0 software (Origin Software Solutions, Bristol, UK). Each titration was carried out in duplicate.

As to `CC(C)(C)OC(=O)/N=C(\NC(=O)OC(C)(C)C)Nc1cc(Cl)ccn1` [SB002], the “IC50 CYP450 2C19” value against CYP2C19 was “some evidence of interacting with the turnover of mephenytoin”. Moreover, at CYP2C19 (read-out: IC50 CYP450 2C19), the IC50 came to 126 µM. This compound gave a Kd at MSPa of 0.0286 ± 0.0016 µM. In addition, at MSPa (setting [1]), the Ka was determined as 3.56e+07 ± 1.86e+06 M, the ΔG is reported as −10.31 ± 1.79×10^−3 kcal/mol, the ΔH is recorded as −0.47 ± 1.79×10^−3 kcal/mol and the “−TΔS” value is -9.84 kcal/mol. Besides, the “n (binding sites)” value at MSPa (ITC, per monomeric unit of MSPa) is 0.35 and 0.35 ± 8.41 × 10^−4.

Source of the values: article PMC7177833, “2-Aminopyridine Analogs Inhibit Both Enzymes of the Glyoxylate Shunt in Pseudomonas aeruginosa” (International Journal of Molecular Sciences, 2020).
